# Measurements from PMC4908596, “Fusing simulation and experiment: The effect of mutations on the structure and activity of the influenza fusion peptide” (Scientific Reports, 2016).
# Ends that are not written are not given here.
# Details: pH 5
row,Sequence,Kp (lipid/water partition coefficient)
1,GLFAAIAAFIEGGWTAMIDAWYGS [G4AG8AG16AG20A],333
2,GLFGAIAGFIEAAWTGMIDGWYGS [G12AG13A],442
3,GLFGAIAGFIEGGATGMIDGWYGS [W14A],6265
4,"GLFGAIAGFIEGGWTGMIDGWYGS [WT, reference compound]",10455
